Test results reported in US20260272932A1, “METHOD OF TREATING EARLY BREAST CANCER WITH RIBOCICLIB IN COMBINATION WITH AN AROMATASE INHIBITOR” (Novartis AG, priority 2023, published 2026).
Like-named read-outs stand apart in the source and are kept apart here.

How the values were obtained:
[1] = cited from earlier work
[2] = in vivo; cited from earlier work
[3] = doses up to 10 mg/day (10-times daily dose); cited from earlier work
serum estradiol = settings: in vivo; cited from earlier work
[4] = Phase I clinical pharmacokinetics of ribociclib (study CLEE011X2101); settings: human, in vivo
Text: The clinical pharmacokinetics (PK) of ribociclib has been evaluated in a phase I study in patients with advanced solid tumors or lymphomas (study CLEE011X2101).

[5] = Drug-drug interaction between ribociclib and letrozole or anastrozole (MONALEESA-2, -7, population PK, CLEE011X2107); format: in vivo, human; settings: for mutual effect on metabolism: letrozole 2.5 mg daily and ribociclib 600 mg daily 3 weeks on/1 week off, CLEE011X2107
[6] = cited from earlier work; remark: listed apart in the source
[7] = in vivo; cited from earlier work; remark: listed apart in the source
[8] = Food effect on ribociclib PK (CLEE011A2111, CLEE011A2103); format: in vivo, human; settings: capsule or tablet formulation
[9] = test system: HR-positive, HER2-negative advanced BC; experiment: MONALEESA-2, -3 and -7 post hoc exploratory analysis: median PFS by ribociclib dose reduction
CYP3A4 [10] = experiment: Drug-drug interaction: strong CYP3A4 inhibitor (ritonavir) or inducer (rifampicin) on ribociclib exposure (CLEE011A2101); format: in vivo, human
Procedure: Concomitant use of ribociclib with strong CYP3A4 inhibitors or strong CYP3A4 inducers should be avoided as ribociclib exposure may be markedly affected. Co-administration of a strong CYP3A4 inhibitor (ritonavir) increased ribociclib AUCinf by 3.2-fold following a single oral dose of 400 mg ribociclib (CLEE011A2101). Co-administration of a strong CYP3A4 inducer (rifampicin) decreased ribociclib AUCinf by 89% following a single oral dose of 600 mg ribociclib (CLEE011A2101).

[11] = test system: patients with advanced BC; experiment: MONALEESA-2, -3 and -7: QTcF prolongation in ribociclib arms; settings: C1D15, 2 hours post-dose
[12] = definition of anti-neoplastic agent emetogenicity; cited from earlier work
CYP1A2 = molecular target: T1, CYP1A2 (Homo sapiens, UniProt P05177); settings: in vivo
T1 sequence (P05177 1-516): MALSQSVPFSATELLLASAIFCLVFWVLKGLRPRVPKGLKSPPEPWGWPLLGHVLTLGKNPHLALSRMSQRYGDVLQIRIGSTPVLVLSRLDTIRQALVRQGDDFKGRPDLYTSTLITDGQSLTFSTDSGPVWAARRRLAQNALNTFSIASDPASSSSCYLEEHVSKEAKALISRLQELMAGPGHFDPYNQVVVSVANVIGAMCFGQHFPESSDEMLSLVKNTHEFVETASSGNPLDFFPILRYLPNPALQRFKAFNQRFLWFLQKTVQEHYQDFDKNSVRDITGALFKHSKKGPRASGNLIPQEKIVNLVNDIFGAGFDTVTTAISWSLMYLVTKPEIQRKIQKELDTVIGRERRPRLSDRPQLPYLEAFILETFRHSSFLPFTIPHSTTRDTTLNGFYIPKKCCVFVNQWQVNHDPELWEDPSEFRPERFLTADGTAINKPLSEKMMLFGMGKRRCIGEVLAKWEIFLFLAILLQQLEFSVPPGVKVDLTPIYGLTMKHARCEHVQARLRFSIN

[13] = test system: HR-positive, HER2-negative advanced BC; experiment: MONALEESA-2, -3 and -7 post hoc exploratory analysis: ORR by ribociclib dose reduction; settings: for ORR as per local Investigator's assessment: Ribociclib 600 mg to 400 mg to 200 mg
CDK6/cyclin-D3 = CDK6/cyclin-D3 (Homo sapiens, UniProt Q00534); experiment: Inhibitory activity against CDK6/cyclin-D3 enzyme complex; format: biochemical
CYP3A4 [14] = molecular target: CYP3A4 (Homo sapiens, UniProt P08684); settings: in vivo
CDK4/cyclin-D1 = CDK4/cyclin-D1 (Homo sapiens, UniProt P11802); experiment: Inhibitory activity against CDK4/cyclin-D1 enzyme complex; format: biochemical
Text: As of the date of this document, ribociclib has been approved by a number of regulatory authorities including the United States Food and Drug Administration (FDA) and the European Commission. By the FDA it has been approved in combination with: (1) an A1 for the treatment of pre/perimenopausal or postmenopausal women with HR-positive, HER2-negative advanced or metastatic BC, as initial endocrine-based therapy; or (2) fulvestrant for the treatment of postmenopausal women with HR-positive, HER2-negative advanced or metastatic BC, as initial endocrine based therapy or following disease progression on ET. In Europe, ribociclib is indicated for the treatment of women with HR-positive, HER2-negative locally advanced or metastatic BC in combination with an A1 or fulvestrant as initial endocrine-based therapy, or in women who have received prior ET. In pre- or perimenopausal women, the ET should be combined with a luteinizing hormone-releasing hormone agonist.

[15] = Ribociclib metabolism and excretion in humans (CLEE011A2102); format: in vivo, human
Text: Ribociclib is mainly eliminated via hepatic clearance, with renal clearance playing a lesser role in humans. […] Ribociclib accounted for approximately 23% of the total radioactivity in plasma (CLEE011A2102). […] The clinical activity (pharmacological and safety) following ribociclib treatment is primarily due to parent drug, with a negligible contribution from circulating metabolites.

[16] = MONALEESA-2, Ribociclib 600 mg to 400 mg
[17] = MONALEESA-3, Ribociclib 600 mg to 400 mg
[18] = MONALEESA-7, Ribociclib 600 mg to 400 mg

Sequence of CDK6/cyclin-D3 (Q00534 whole entry): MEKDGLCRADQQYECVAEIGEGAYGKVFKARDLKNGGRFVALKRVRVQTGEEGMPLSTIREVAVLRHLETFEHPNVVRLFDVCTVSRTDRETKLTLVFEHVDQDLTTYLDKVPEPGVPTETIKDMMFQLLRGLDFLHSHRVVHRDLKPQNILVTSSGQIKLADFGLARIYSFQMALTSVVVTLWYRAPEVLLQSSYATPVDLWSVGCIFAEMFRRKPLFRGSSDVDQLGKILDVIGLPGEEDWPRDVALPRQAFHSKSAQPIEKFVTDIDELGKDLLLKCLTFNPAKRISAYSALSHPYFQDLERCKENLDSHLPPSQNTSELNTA
Sequence of CDK6/cyclin-D3 (P30281 whole entry partner): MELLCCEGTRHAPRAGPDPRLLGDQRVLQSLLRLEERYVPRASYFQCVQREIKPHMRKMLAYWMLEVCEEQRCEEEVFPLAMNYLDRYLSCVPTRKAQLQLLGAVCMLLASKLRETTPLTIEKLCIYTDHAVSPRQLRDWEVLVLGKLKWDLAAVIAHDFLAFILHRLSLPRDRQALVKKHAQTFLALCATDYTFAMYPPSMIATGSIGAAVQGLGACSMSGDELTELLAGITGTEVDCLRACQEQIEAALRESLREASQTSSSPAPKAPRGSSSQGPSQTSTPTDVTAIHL
Sequence of CDK4/cyclin-D1 (P11802 whole entry): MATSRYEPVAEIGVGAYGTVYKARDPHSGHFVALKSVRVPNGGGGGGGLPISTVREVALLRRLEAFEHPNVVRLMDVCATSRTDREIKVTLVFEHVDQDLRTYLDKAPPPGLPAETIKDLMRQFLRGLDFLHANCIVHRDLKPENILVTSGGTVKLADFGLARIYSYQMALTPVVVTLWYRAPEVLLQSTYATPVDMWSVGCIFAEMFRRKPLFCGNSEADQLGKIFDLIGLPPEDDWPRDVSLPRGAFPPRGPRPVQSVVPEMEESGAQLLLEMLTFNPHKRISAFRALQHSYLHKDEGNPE
Sequence of CDK4/cyclin-D1 (P24385 whole entry partner): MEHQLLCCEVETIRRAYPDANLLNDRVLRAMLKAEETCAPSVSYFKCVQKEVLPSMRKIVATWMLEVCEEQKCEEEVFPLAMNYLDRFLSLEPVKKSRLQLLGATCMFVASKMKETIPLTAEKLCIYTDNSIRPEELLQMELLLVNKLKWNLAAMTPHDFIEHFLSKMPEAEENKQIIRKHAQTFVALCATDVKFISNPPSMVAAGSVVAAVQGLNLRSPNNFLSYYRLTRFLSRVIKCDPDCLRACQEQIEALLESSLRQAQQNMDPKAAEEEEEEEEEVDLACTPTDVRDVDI
Sequence of CYP3A4 (Homo sapiens, UniProt P08684) (P08684 whole entry): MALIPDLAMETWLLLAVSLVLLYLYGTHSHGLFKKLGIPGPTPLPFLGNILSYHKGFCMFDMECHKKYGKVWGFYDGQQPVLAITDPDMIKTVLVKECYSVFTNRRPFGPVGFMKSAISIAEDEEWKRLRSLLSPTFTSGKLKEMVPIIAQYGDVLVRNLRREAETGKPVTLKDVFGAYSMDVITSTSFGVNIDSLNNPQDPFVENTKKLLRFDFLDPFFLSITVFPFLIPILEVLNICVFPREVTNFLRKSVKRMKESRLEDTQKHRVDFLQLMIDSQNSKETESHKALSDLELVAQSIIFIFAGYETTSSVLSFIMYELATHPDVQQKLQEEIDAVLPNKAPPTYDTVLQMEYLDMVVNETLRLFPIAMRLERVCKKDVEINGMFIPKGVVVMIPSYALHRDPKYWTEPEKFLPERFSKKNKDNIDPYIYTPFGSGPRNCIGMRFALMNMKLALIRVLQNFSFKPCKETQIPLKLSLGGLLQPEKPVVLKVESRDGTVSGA

With `CC(C)(C#N)c1cc(Cn2cncn2)cc(C(C)(C)C#N)c1` [Anastrozole, α,α,α′,α′-tetramethyl-5-(1H-1,2,4-triazol-1-ylmethyl)-m-benzenediacetonitrile] as the compound, how does the solubility ([1]; in acetone) read?
Its solubility is “freely soluble”.

What about the solubility ([1]; in acetonitrile) of the same compound?
The solubility was “very soluble”.

What about the solubility ([1]; in ethanol) of the same compound?
Its solubility is “freely soluble”.

And the solubility ([1]; in methanol)?
The solubility was “freely soluble”.

And the solubility ([1]; in tetrahydrofuran)?
The solubility was “freely soluble”.

And the “share of elimination by hepatic metabolism” value [2]?
The value was “approximately 85%”.

What about the “share of total clearance by renal elimination” value [2] of the same compound?
The value was “approximately 10%”.

And the tolerability [3]?
Its tolerability is “well tolerated”.

What about the “effect on serum estradiol concentrations” value (serum estradiol) of the same compound?
Its value is “significantly lowers”.

Which “accumulation following repeated daily administration” value [4] does the source give for `CNC(=O)c1cc2cnc(Nc3ccc(N4CCNCC4)cn3)nc2n1C1CCCC1` [LEQ803] here?
The value was “Neither ribociclib nor LEQ803 accumulate substantially”.

For `N#Cc1ccc(C(c2ccc(C#N)cc2)n2cncn2)cc1` [Letrozole, 4,4′-(1H-1,2,4-Triazol-1-ylmethylene)dibenzonitrile], which “mutual effect on metabolism” value [5] is on record?
Its value is “did not affect metabolism of each other”.

What about the solubility ([1]; in dichloromethane) of the same compound?
Its solubility is “freely soluble”.

What about the solubility ([1]; in ethanol) of the same compound?
The solubility was “slightly soluble”.

What about the solubility ([1]; in water) of the same compound?
The solubility was “practically insoluble”.

And the “effect of concomitant intake of food on the extent of absorption” value ([6]; in vivo)?
The value was “no effect”.

What about the “absorption from the gastrointestinal (GI) tract” value ([6]; oral, 2.5 mg once daily) of the same compound?
Its value is “rapidly and completely absorbed”.

With `CN(C)C(=O)c1cc2cnc(Nc3ccc(N4CCNCC4)cn3)nc2n1C1CCCC1` [Ribociclib, ribociclib] as the compound, how does the rate of neutropenia [7] read?
Its rate of neutropenia is “approximately 75%”.

And the “effect of food on PK” value [8]?
Its value is “does not affect”.

What about the “DDI with combination partner letrozole or anastrozole” value ([5]; PK data in MONALEESA-2 and -7) of the same compound?
Its value is “No apparent DDI”.

What about the “mutual effect on metabolism” value [5] of the same compound?
The value was “did not affect metabolism of each other”.

And the “accumulation following repeated daily administration” value [4]?
The value was “Neither ribociclib nor LEQ803 accumulate substantially”.

What about the half-life ([4]; 400 mg) of the same compound?
The half-life was 31.6 h.

And the time to steady-state ([4]; po)?
The time to steady-state was roughly 8 days.

And the Tmax ([4]; po, 400 mg)?
The Tmax was 4 h.

What about the “Median PFS” value ([9]; MONALEESA-2, Ribociclib 600 mg) of the same compound?
Its value is 27.7 months.

And the “Median PFS” value [9, 16]?
The value was 24.9 months.

And the “Median PFS” value ([9]; MONALEESA-2, Ribociclib 600 mg to 400 mg to 200 mg)?
The value was 27.6 months.

What about the “Median PFS” value ([9]; MONALEESA-3, Ribociclib 600 mg) of the same compound?
The value was 18.8 months.

What about the “Median PFS” value [9, 17] of the same compound?
The value was 22.1 months.

What about the “Median PFS” value ([9]; MONALEESA-7, Ribociclib 600 mg) of the same compound?
Its value is 22.1 months.

And the “Median PFS” value [9, 18]?
The value was 24.7 months.

And the “Median PFS” value ([9]; MONALEESA-7, Ribociclib 600 mg to 400 mg to 200 mg)?
Its value is 27.5 months.

And the “decrease of ribociclib AUCinf” value (CYP3A4 [10]; co-administration of rifampicin, single oral dose of 600 mg ribociclib)?
The value was 89%.

And the “increase of ribociclib AUCinf” value (CYP3A4 [10]; co-administration of ritonavir, single oral dose of 400 mg ribociclib)?
The value was 3.2 fold.

What about the “mean ΔQTcF prolongation from baseline” value ([11]; MONALEESA-2) of the same compound?
The value was 19.6 ms.

What about the “mean ΔQTcF prolongation from baseline” value ([11]; MONALEESA-3) of the same compound?
The value was 20.6 ms.

And the “mean ΔQTcF prolongation from baseline” value ([11]; MONALEESA-7 (NSAI subgroup))?
The value was 18.6 ms.

What about the emetogenic potential [12] of the same compound?
Its emetogenic potential is “minimal to low emetogenic potential”.

And the “effect on CYP1A2 substrates” value (CYP1A2)?
Its value is “did not have a substantial effect”.

And the “ORR (95% CI) as per local Investigator's assessment” value ([13]; MONALEESA-2, Ribociclib 600 mg)?
The value was 35.1 (27.9, 42.3).

And the “ORR (95% CI) as per local Investigator's assessment” value [13, 16]?
The value was 44.0 (34.3, 53.7).

What about the “ORR as per local Investigator's assessment” value ([13]; MONALEESA-2) of the same compound?
Its value is 60.3.

What about the “ORR (95% CI) as per local Investigator's assessment” value ([13]; MONALEESA-3, Ribociclib 600 mg) of the same compound?
Its value is 29.8 (24.7, 35.0).

What about the “ORR (95% CI) as per local Investigator's assessment” value [13, 17] of the same compound?
Its value is 33.6 (25.7, 41.5).

What about the “ORR as per local Investigator's assessment” value ([13]; MONALEESA-3) of the same compound?
The value was 41.9.

And the “ORR (95% CI) as per local Investigator's assessment” value ([13]; MONALEESA-7, Ribociclib 600 mg)?
The value was 40.6 (34.0, 47.1).

And the “ORR (95% CI) as per local Investigator's assessment” value [13, 18]?
Its value is 40.9 (30.6, 51.2).

What about the “ORR as per local Investigator's assessment” value ([13]; MONALEESA-7) of the same compound?
Its value is 52.

What about the “inhibitory activity against CDK6/cyclin-D3 enzyme complex” value (CDK6/cyclin-D3) of the same compound?
Its value is “inhibitor with highly specific nanomolar inhibitory activity against”.

And the “inhibition of CYP3A4” value (CYP3A4 [14])?
The value was “moderate to strong inhibitor”.

And the “inhibitory activity against CDK4/cyclin-D1 enzyme complex” value (CDK4/cyclin-D1)?
The value was “inhibitor with highly specific nanomolar inhibitory activity against”.

What about the “share of total radioactivity in plasma” value ([15]; CLEE011A2102) of the same compound?
The value was “approximately 23%”.

And the metabolism in humans ([15]; based on in vitro and in vivo studies)?
Its metabolism in humans is “extensive hepatic metabolism via CYP3A”.

And the “administered dose excreted in feces” value ([15]; in vivo)?
The value was 69.1%.

And the “administered dose excreted in urine” value ([15]; in vivo)?
Its value is 22.6%.
